Source: publication PMC4912077 (PLoS ONE, 2016)
Where “and” joins values, the source holds several entries; their conditions need not be identical. Identical values can stand only once. Counter-ions that a name gives are not always drawn.

How the values were obtained:
DAT [1] = target: T1, DAT (Homo sapiens, UniProt Q01959); assay: Monoamine reuptake inhibition assay, DAT in HEK293 cells; type: cell-based; design: expressed in transfected cells; host or cells: HEK293; conditions: for Hill slope DAT reuptake inhibition: HEK293 cells
Experimental: (§1) Monoamine reuptake inhibition assays were performed via the NIMH PDSP as previously described.[28] In brief, the neurotransmitter transporter uptake assay kit (R8174) (Molecular Devices) was used. Human monoamine transporters (DAT, NET and SERT) were stably expressed in HEK293 cells. Assay buffer consisted of 20 mM HEPES, 1x HBSS at pH 7.4. Cells were plated in Pol-L-Lys (PLL) coated 384-well black clear bottom cell culture plates with a density of 15,000 cells/well. Cells were incubated for at least 6 h prior to assay. Media was removed and replaced with 20 μL assay buffer and 5 μL of drug or positive control (cocaine or nisoxetine) as a 5X stock. Cells were incubated for 30 min at 37°C. 25 μL of dye solution was then added and following an additional 30 min incubation (at 37°C) fluorescence intensity was measured using a FlexStation II (bottom read mode, excitation wavelength = […], emission = 520 nM with a cutoff of 510 nM). […] Additional details are available in the NIMH PDSP assay protocol book.

KOR = KOR (Homo sapiens, UniProt P41145); assay: NIMH PDSP radioligand binding, KOR
Experimental: (§2) Radioligands and concentrations used for additional 45 CNS receptor binding assays are listed as supporting information (S1 Table). This work was performed by the National Institute of Mental Health Psychoactive Drug Screening Program (NIMH PDSP) as described previously.[26] Briefly target compounds were dissolved in DMSO and subjected to a primary screen at 10,000 nM concentration. […] Additional experimental details are available in the NIMH PDSP assay protocol book.

M1 = M1 (Homo sapiens, UniProt P11229); assay: NIMH PDSP radioligand binding, M1
[2] = test system: PCP site within the NMDAR channel;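 note: IC50 by nonlinear regression of percent specific binding versus log concentration, Ki from IC50 via Cheng-Prusoff, raw counts in CPM, duplicates repeated at least three times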
Experimental: (§3) The reaction was terminated by vacuum filtration using a 24 well cell harvester (Brandel, Gaithersburg, MD) over presoaked GF/B glass fiber filters (Brandel, Gaithersburg, MD). Filters were washed with room temperature assay buffer (3 x 5 mL). […] IC50 values were determined in Graphpad Prism 5.0 using non-linear regression with log-concentration plotted against percent specific binding. […] Ki values were calculated using the equation of Cheng and Prusoff [24]. […] Protein concentration was determined via the Bradford method using Coomassie protein assay reagent (Sigma, USA) [25] with rat albumin (Sigma, USA) as standard. Experiments were performed in duplicate and repeated a minimum of three times.

M4 = M4 (Homo sapiens, UniProt P08173); assay: NIMH PDSP radioligand binding, M4
Alpha2A = Alpha2A (Homo sapiens, UniProt P08913); assay: NIMH PDSP radioligand binding, Alpha2A
Experimental: as §2

M5 = M5 (Homo sapiens, UniProt P08912); assay: NIMH PDSP radioligand binding, M5
NMDAR [3] = test system: NMDAR; design: method as in earlier work; conditions: [3H]-TCP; cited from earlier work
Alpha2C = target: T2, Alpha2C (Homo sapiens, UniProt P18825); assay: NIMH PDSP radioligand binding, Alpha2C
T2 sequence (P18825 1-462): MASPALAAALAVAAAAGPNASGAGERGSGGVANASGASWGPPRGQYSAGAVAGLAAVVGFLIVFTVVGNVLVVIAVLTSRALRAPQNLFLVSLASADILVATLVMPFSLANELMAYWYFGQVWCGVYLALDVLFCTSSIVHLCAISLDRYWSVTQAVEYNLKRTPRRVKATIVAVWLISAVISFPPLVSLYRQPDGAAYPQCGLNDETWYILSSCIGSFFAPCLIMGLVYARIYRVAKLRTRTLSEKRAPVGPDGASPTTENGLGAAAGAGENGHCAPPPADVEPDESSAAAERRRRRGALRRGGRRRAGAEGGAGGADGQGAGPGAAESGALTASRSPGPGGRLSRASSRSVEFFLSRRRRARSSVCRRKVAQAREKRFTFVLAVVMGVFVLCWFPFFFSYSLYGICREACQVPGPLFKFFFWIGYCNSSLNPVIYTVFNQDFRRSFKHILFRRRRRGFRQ
Experimental: as §2

NET [4] = target: T3, NET (Homo sapiens, UniProt P23975); assay: Monoamine reuptake inhibition assay, NET in HEK293 cells; type: cell-based; design: expressed in transfected cells; host or cells: HEK293; conditions: for Hill slope NET reuptake inhibition: HEK293 cells
Experimental: as §1

M2 = M2 (Homo sapiens, UniProt P08172); assay: NIMH PDSP radioligand binding, M2
Human SERT = target: T4, Human SERT (Homo sapiens, UniProt P31645); assay: Monoamine reuptake inhibition assay, SERT in HEK293 cells; type: cell-based
T4 construct: expressed in transfected cells; host or cells: HEK293
Experimental: as §1

[5] = target: PCP site within the NMDAR channel; assay: NMDAR binding, [3H]-MK-801 displacement in rat forebrain homogenate; conditions: for Ki: read-out: Ki ± SEM, [3H]-(+)-MK-801, rat forebrain, Cheng-Prusoff; for [3H]-MK-801 binding counts (Count1-3): raw counts, three counts;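 for all read-outs here: IC50 by nonlinear regression of percent specific binding versus log concentration, Ki from IC50 via Cheng-Prusoff, raw counts in CPM, duplicates repeated at least three times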
Experimental: as §3

Sigma 2 = target: T5, Sigma 2 (Rattus norvegicus, UniProt Q5U3Y7); assay: NIMH PDSP radioligand binding, Sigma 2
T5 sequence (Q5U3Y7 1-176): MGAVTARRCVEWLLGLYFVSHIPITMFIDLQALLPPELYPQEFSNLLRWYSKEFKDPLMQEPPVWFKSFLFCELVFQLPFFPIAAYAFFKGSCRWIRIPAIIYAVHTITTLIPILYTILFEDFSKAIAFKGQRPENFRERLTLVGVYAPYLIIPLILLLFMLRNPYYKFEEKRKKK
Experimental: as §2

MOR = MOR (Homo sapiens, UniProt P35372); assay: NIMH PDSP radioligand binding, MOR
Experimental: as §2

DAT [6] = target: T1, DAT; assay: NIMH PDSP radioligand binding, DAT
Experimental: as §2

M3 = M3 (Homo sapiens, UniProt P20309); assay: NIMH PDSP radioligand binding, M3
NET [7] = target: T3, NET; assay: NIMH PDSP radioligand binding, NET
Experimental: as §2

H1 = H1 (Homo sapiens, UniProt P35367); assay: NIMH PDSP radioligand binding, H1
Experimental: as §2

H3 = H3 (Homo sapiens, UniProt Q9Y5N1); assay: NIMH PDSP radioligand binding, H3
Experimental: as §2

NMDAR [8] = conditions: [3H]-MK-801, rat cortex and hippocampus membranes; read-out: NMDAR affinity; cited from earlier work
NMDA receptor = assay: NMDA receptor-mediated fEPSP (NMDAR-fEPSP) in CA1 of hippocampal slices; type: cell-based, rat; conditions: 10 μM
Experimental: Male Wistar rats (Crl:Wi; Charles River, UK) aged 9–10 wk were sacrificed by neck vertebral dislocation (schedule 1 method) according to the United Kingdom (Scientific Procedures) Act of 1986. […] The brain was cut parasagittally into 400 μm sections and hippocampal slices were removed, stored and placed in a submerged recording chamber at 28–30°C. Recordings of synaptic activity were made, analyzed and presented as described. A bipolar electrode was used to deliver stimuli (0.03 Hz) to the Schaffer collateral pathway to enable recording of field excitatory synaptic potentials (fEPSPs) using a glass microelectrode positioned in the stratum radiatum of area CA1. […] After 30 min of stable control responses, 1 and 10 μM solutions of the individual compounds were added to the perfusate for 3–12 h while recording the amplitude and area of the NMDAR-fEPSP on-line using WinLTP [31]. Single exponential curves were fitted to the graphs and curves extrapolated to show likely half-times and minimum plateau responses achieved with each concentration of the compounds. Raw data for all fEPSP experiments are provided as supporting information (S2, S3 and S4 Files).

Sequence of M1 (P11229 whole entry): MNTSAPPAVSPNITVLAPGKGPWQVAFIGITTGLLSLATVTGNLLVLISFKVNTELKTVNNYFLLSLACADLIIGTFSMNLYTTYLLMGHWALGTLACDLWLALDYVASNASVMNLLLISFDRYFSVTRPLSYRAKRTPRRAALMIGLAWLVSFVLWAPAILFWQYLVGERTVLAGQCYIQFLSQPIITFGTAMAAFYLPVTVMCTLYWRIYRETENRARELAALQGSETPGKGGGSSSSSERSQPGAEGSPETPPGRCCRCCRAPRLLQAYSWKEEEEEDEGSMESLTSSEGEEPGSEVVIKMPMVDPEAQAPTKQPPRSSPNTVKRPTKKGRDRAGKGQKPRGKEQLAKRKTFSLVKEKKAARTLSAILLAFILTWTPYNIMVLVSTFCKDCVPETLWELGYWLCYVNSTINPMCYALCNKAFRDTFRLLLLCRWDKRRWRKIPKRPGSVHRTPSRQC
Sequence of M5 (P08912 whole entry): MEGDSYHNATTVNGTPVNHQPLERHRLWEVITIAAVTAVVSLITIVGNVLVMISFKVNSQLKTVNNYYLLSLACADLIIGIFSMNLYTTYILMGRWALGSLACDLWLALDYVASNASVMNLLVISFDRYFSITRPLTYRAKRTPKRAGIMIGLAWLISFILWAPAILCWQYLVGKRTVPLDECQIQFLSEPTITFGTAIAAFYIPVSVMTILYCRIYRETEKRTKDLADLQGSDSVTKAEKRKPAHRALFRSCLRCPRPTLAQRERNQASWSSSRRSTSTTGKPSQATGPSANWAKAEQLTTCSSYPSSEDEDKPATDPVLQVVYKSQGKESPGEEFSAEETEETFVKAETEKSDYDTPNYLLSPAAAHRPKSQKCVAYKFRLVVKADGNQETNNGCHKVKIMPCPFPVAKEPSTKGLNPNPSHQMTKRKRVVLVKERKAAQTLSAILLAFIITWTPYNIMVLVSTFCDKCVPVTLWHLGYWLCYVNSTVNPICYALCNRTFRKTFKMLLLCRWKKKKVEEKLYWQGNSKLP
Sequence of M2 (P08172 whole entry): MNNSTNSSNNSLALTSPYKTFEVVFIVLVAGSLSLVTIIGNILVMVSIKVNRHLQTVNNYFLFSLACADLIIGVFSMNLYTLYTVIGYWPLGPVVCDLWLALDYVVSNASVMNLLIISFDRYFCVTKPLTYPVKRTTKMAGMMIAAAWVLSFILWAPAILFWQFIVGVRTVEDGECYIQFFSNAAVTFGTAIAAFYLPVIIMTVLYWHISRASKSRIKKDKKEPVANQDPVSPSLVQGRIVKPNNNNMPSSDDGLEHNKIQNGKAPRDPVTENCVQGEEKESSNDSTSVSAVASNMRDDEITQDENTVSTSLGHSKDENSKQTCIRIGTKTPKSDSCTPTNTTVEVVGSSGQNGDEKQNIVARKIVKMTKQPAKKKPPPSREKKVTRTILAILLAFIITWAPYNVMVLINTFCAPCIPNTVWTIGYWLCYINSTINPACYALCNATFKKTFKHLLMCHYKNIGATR
Sequence of M3 (P20309 whole entry): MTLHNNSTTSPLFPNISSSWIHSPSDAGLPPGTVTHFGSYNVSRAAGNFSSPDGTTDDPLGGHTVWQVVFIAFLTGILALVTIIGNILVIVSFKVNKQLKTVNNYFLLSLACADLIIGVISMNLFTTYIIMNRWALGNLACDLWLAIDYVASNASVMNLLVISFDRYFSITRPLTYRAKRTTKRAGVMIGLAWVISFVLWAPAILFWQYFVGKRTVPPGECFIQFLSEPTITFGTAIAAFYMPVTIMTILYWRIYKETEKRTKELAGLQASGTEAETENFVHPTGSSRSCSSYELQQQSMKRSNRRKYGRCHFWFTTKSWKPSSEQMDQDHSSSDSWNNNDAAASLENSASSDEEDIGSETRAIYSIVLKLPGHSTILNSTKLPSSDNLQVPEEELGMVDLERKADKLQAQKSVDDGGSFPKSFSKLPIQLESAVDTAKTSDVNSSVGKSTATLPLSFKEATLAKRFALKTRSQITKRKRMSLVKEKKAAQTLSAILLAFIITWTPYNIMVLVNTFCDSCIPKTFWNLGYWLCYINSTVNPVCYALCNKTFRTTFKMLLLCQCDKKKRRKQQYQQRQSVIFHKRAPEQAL
T3 sequence (P23975 whole entry): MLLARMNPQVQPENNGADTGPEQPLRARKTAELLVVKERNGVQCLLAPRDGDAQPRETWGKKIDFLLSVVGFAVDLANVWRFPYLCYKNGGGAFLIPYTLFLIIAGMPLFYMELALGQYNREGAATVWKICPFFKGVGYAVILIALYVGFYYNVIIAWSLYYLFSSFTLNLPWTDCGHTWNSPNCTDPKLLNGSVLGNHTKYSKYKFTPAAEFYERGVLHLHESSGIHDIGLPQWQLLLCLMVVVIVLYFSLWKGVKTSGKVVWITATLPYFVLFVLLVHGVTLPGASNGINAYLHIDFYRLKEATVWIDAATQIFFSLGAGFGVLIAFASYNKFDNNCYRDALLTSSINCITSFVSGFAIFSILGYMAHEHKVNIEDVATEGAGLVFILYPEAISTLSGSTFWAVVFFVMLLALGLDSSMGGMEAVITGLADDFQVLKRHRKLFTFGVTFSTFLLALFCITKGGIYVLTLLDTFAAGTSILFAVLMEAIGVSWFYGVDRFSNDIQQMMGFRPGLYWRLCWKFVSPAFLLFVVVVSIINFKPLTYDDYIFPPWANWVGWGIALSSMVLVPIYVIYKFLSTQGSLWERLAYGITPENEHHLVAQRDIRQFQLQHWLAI
T4 sequence (P31645 whole entry): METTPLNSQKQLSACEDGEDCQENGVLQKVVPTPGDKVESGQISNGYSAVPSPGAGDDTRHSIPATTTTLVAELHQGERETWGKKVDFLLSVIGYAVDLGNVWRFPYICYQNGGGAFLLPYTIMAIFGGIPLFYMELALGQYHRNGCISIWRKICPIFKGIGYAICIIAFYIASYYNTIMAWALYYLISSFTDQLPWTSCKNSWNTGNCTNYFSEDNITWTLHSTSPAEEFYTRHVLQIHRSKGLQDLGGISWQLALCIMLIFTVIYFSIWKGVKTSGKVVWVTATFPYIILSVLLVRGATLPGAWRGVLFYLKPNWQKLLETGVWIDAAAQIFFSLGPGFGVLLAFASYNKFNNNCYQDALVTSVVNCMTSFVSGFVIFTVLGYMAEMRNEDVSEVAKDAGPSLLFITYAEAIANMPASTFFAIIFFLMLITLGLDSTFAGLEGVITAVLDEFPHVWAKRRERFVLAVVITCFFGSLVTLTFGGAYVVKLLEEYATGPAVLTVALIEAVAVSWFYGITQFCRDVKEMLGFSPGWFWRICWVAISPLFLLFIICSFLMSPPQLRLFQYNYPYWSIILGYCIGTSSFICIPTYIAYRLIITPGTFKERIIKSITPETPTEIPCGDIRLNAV
T1 sequence (Q01959 whole entry): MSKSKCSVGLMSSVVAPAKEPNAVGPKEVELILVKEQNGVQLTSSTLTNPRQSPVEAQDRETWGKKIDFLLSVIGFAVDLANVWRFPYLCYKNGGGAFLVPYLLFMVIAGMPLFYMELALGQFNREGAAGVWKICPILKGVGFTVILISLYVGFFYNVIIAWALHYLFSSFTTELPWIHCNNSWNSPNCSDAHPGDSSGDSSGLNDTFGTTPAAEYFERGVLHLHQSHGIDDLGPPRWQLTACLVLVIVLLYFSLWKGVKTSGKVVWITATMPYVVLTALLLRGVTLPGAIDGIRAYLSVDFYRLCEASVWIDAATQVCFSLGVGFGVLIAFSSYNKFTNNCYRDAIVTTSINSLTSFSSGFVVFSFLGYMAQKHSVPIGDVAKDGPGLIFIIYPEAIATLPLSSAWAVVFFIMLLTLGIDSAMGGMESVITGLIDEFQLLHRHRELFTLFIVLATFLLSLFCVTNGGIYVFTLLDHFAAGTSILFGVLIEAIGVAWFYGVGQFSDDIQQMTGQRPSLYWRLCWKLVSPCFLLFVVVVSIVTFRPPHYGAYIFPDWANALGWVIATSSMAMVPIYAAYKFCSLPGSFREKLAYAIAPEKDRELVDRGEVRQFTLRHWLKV
Sequence of H3 (Q9Y5N1 whole entry): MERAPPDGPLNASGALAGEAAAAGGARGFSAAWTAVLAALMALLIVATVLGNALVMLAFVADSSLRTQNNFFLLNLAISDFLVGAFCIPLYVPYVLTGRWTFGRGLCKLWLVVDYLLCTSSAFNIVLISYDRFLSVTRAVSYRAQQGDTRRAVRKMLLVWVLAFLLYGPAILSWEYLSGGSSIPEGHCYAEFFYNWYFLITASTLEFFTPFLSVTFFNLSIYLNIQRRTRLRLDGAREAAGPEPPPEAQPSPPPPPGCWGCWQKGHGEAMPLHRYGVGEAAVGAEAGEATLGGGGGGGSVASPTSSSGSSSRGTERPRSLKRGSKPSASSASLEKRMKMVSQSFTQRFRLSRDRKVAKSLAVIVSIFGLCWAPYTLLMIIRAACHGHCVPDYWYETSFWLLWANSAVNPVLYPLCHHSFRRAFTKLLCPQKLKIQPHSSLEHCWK
Sequence of H1 (P35367 whole entry): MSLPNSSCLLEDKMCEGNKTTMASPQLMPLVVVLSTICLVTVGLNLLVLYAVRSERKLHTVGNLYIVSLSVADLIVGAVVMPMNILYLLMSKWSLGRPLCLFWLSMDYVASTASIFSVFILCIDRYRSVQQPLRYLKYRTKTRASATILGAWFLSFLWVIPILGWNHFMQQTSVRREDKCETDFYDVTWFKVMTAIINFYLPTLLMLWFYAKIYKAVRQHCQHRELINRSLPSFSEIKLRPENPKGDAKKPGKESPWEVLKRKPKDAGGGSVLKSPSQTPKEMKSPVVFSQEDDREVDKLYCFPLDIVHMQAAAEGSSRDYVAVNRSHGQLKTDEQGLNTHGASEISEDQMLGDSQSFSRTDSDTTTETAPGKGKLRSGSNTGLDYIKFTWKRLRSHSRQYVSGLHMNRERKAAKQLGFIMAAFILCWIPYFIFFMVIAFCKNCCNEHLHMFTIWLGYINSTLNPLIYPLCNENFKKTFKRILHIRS

Row | Compound | IC50 (DAT [1]) [nM] | Hill slope DAT reuptake inhibition (DAT [1]) | Ki (M1) [nM] | IC50 [2] [nM] | Ki (M5) [nM] | IC50 (NET [4]) [nM] | Hill slope NET reuptake inhibition (NET [4]) | Ki (M2) [nM] | IC50 (Human SERT) [nM] | Ki [5] [nM] | Ki (Sigma 2) [nM] | Ki (DAT [6]) [nM] | Ki (M3) [nM] | also measured
1 | Clc1ccccc1C(Cc1ccccc1)N1CCCCC1 (centres unmarked) [2-Cl-DPH, 2-Cl-diphenidine] | 10500 | 0.65 | 278 | 14.6 ± 2.1 | 291 | 27100 | 1.02 | 910 | > 10000 | 9.3 ± 1.3 | 474 | 357 | 615 | Ki (KOR): 642 nM; affinities at muscarinic sites relative to NMDAR (M1; less than for NMDAR): 30 fold; Ki (M4): 828 nM; Ki (Alpha2A): 2690 nM; NMDAR affinity (NMDAR [3]): pM affinity; Ki (Alpha2C): 1820 nM; Ki (MOR): 2060 nM
2 | COc1cccc(C(Cc2ccccc2)N2CCCCC2)c1 (centres unmarked) [3-MXP, 3-methoxy-diphenidine] | 587 | 0.92 | 2400 | 30.3 ± 2.6 | 1120 | 2710 | 0.95 | 2970 | > 10000 | 19.3 ± 1.7 | 633 | 88 | 2300 | Ki (KOR): 2260 nM; Ki (NET [7]): 325 nM; Ki (H1): 2030 nM; Ki (H3): 1470 nM
3 | COc1ccc(C(Cc2ccccc2)N2CCCCC2)cc1 (centres unmarked) [4-MXP, 4-methoxy-diphenidine] | 2230 | 0.96 | 2430 | 724 ± 69.9 | 2760 | 22500 | 1.75 | 1620 | 19000 | 461 ± 44.5 | 564 | 157 | 2400 | Ki (NET [7]): 2700 nM; Ki (Alpha2C): 2510 nM; Ki (H1): 4530 nM; Ki (H3): 556 nM; Hill slope SERT reuptake inhibition (Human SERT; HEK293 cells): 1.12; affinity at DAT relative to NMDAR (DAT [6]; higher at DAT): ~ 2.5 fold
4 | c1ccc(C[C@H](c2ccccc2)N2CCCCC2)cc1 [(R)-DPH] |  |  |  |  |  |  |  |  |  |  |  |  |  | Ki (NMDAR [8]): 5250 nM
5 | c1ccc(C[C@@H](c2ccccc2)N2CCCCC2)cc1 [(S-)-DPH] |  |  |  |  |  |  |  |  |  |  |  |  |  | Ki (NMDAR [8]): 120 nM
6 | NC(CCCP(=O)(O)O)C(=O)O [D-AP5, reference compound] |  |  |  |  |  |  |  |  |  |  |  |  |  | small persistent deflection remaining of the NMDAR-fEPSP (NMDA receptor): < 20%
7 | CNC1(c2ccccc2Cl)CCCCC1=O (centres unmarked) [Ketamine, ketamine, reference compound] |  |  |  | 508 ± 30.1 |  |  |  |  |  | 324 ± 19.2 |  |  |  | 
8 | CC12CC3CC(C)(C1)CC(N)(C3)C2 [Memantine, memantine hydrochloride] |  |  |  | 594 ± 41.3 |  |  |  |  |  | 378 ± 26.3 |  |  |  | [3H]-MK-801 binding counts (Count1-3) ([5]; Assay 6, memantine concentration 1.00E-04): 54.75 and 56.13 and 57.01; [3H]-MK-801 binding counts (Count1-3) ([5]; Assay 6, memantine concentration 1.00E-05): 80 and 85.76 and 84.26; [3H]-MK-801 binding counts (Count1-3) ([5]; Assay 6, memantine concentration 1.00E-06): 302 and 309.15 and 302.79; [3H]-MK-801 binding counts (Count1-3) ([5]; Assay 6, memantine concentration 1.00E-07): 630.88 and 668.92 and 629.83; [3H]-MK-801 binding counts (Count1-3) ([5]; Assay 6, memantine concentration 1.00E-08): 740.13 and 745.68 and 749.23; [3H]-MK-801 binding counts (Count1-3) ([5]; Assay 6, memantine concentration 1.00E-09): 755.01 and 781.68 and 787.36; [3H]-MK-801 binding counts (Count1-3) ([5]; Assay 6, memantine concentration 1.00E-10): 758.88 and 769.56 and 771.23; [3H]-MK-801 binding counts (Count1-3) ([5]; Assay 6 duplicate, memantine concentration 1.00E-04): 49.38 and 49.13 and 46.88; [3H]-MK-801 binding counts (Count1-3) ([5]; Assay 6 duplicate, memantine concentration 1.00E-05): 91.38 and 89.51 and 86.76; [3H]-MK-801 binding counts (Count1-3) ([5]; Assay 6 duplicate, memantine concentration 1.00E-06): 307.63 and 313.65 and 307.54; [3H]-MK-801 binding counts (Count1-3) ([5]; Assay 6 duplicate, memantine concentration 1.00E-07): 637.88 and 639.55 and 638.34; [3H]-MK-801 binding counts (Count1-3) ([5]; Assay 6 duplicate, memantine concentration 1.00E-08): 730.14 and 762.94 and 750.86; [3H]-MK-801 binding counts (Count1-3) ([5]; Assay 6 duplicate, memantine concentration 1.00E-09): 757.26 and 761.06 and 761.99; [3H]-MK-801 binding counts (Count1-3) ([5]; Assay 6 duplicate, memantine concentration 1.00E-10): 762.51 and 773.44 and 773.61
